These are literature values, as cited in PubChem BioAssay AID1259409 (Chemical Carcinogenesis Research Information System (CCRIS), 2018).

*1 amine or outer side, *2 acyl side, *3 side chain or, on linkers, in order; H or OH if unused. Where a SMILES comes first, the peptide text is derived from it. CO = O=C([*:1])[*:2]

This data set concerns rodent chemically induced tumor inhibition, incidence and multiplicity. Kind of data set: CCRIS tumor inhibitor studies. As to conditions: for outcome: Target Tissue: Type of Lesion: THYROID GLAND: ADENOMA.

With `CCNc1nc(Cl)nc(NC(C)C)n1`, the outcome is, setting by setting: (Carcinogen: N-NITROSOBIS(2-HYDROXYPROPYL)AMINE, 53609-64-6, Dose [Inhibitor]: 0, 400 PPM IN DIET FOR 25 WK BEGINNING 9 WK POST CARCINOGEN TREATMENT (STUDY DURATION: 35 WK), Route [Inhibitor]: ORAL, Species: RAT, Strain/Sex: F344/FEMALE, Dose [Carcinogen]: 2000 MG/KG 1 WK POST BILATERAL OVARIECTOMY, Promoter: SULFADIMETHOXINE, 122-11-2) 0/12 (0%), 0/15 (0%), 0%, not significant; (Carcinogen: N-NITROSOBIS(2-HYDROXYPROPYL)AMINE, 53609-64-6, Dose [Inhibitor]: 0, 400 PPM IN DIET FOR 27 WK BEGINNING 9 WK POST CARCINOGEN TREATMENT (STUDY DURATION: 37 WK), Route [Inhibitor]: ORAL, Species: RAT, Strain/Sex: F344/FEMALE, Dose [Carcinogen]: 2000 MG/KG BW 1 WK POST BILATERAL OVARIECTOMY, Promoter: SULFADIMETHOXINE, 122-11-2) 0/12 (0%), 0/15 (0%), 0%, not significant. The “tumour outcome (control, treated, inhibition, significance)” value is on record as 10/12 (83%), 9/15 (60%), 28%, not significant (Carcinogen: N-NITROSOBIS(2-HYDROXYPROPYL)AMINE, 53609-64-6, Dose [Inhibitor]: 0, 400 PPM IN DIET FOR 25 WK BEGINNING 9 WK POST CARCINOGEN TREATMENT (STUDY DURATION: 35 WK), Route [Inhibitor]: ORAL, Species: RAT, Strain/Sex: F344/FEMALE, Target Tissue: Type of Lesion: THYROID GLAND: CARCINOMA, Dose [Carcinogen]: 2000 MG/KG 1 WK POST BILATERAL OVARIECTOMY, Promoter: SULFADIMETHOXINE, 122-11-2) and 10/12 (83%), 8/15 (53%), 36%, not significant (Carcinogen: N-NITROSOBIS(2-HYDROXYPROPYL)AMINE, 53609-64-6, Dose [Inhibitor]: 0, 400 PPM IN DIET FOR 27 WK BEGINNING 9 WK POST CARCINOGEN TREATMENT (STUDY DURATION: 37 WK), Route [Inhibitor]: ORAL, Species: RAT, Strain/Sex: F344/FEMALE, Target Tissue: Type of Lesion: THYROID GLAND: CARCINOMA, Dose [Carcinogen]: 2000 MG/KG BW 1 WK POST BILATERAL OVARIECTOMY, Promoter: SULFADIMETHOXINE, 122-11-2).

Turning to `CCCC/C=C\C=C/O[C@@H](CC)CCC(CCC)CCCCCCCC(=O)O[C@]1(O)[C@]2(O)O[C@H](CO[C@H]3O[C@H](CO)[C@H](O)[C@H](O)[C@H]3O)[C@H](O)[C@@]1(O)O2` (some centres not stated), the “tumour outcome (control, treated, inhibition, significance)” value (Carcinogen: 7,12-DIMETHYLBENZ[A]ANTHRACENE, 57-97-6, Dose [Inhibitor]: 0, 85 NMOL IN 0.1 ML ACETONE 2/WK FOR 20 WK APPLIED 1 HR PRIOR TO EACH PROMOTER DOSE (STUDY DURATION: 21 WK), Route [Inhibitor]: DERMAL, Species: MOUSE, Strain/Sex: ICR/FEMALE, Target Tissue: Type of Lesion: SKIN: PAPILLOMA, Dose [Carcinogen]: 390 NMOL IN 0.1 ML ACETONE ONCE, Promoter: 12-O-TETRADECANOYLPHORBOL-13-ACETATE, 16561-29-8) was 100%, 68%, 32%, p<0.05.

As for `CC(C)[C@H](NC(=O)[C@H](CCCN=C(N)N)NC(=O)N[C@@H](Cc1ccccc1)C(=O)O)C(=O)N[C@H](C=O)CCCN=C(N)N` ({Phe-CO}-Arg-Val-Arg-aldehyde), the “tumour outcome (control, treated, inhibition, significance)” value is recorded as 1/13 (7%), 2/15 (13%), -86%, not significant (Carcinogen: 1,2,3,4,5,6-HEXACHLOROCYCLOHEXANE, 319-84-6, Dose [Inhibitor]: 0.1% IN DIET FOR 12 WK POST CARCINOGEN TREATMENT (STUDY DURATION: 48 WK), Route [Inhibitor]: ORAL, Species: MOUSE, Strain/Sex: DDY/MALE, Target Tissue: Type of Lesion: LIVER: NODULAR HYPERPLASIA, Dose [Carcinogen]: 500 PPM IN DIET FOR 24 WK, Promoter: NONE USED); 1/13 (8%), 3/15 (20%), -150%, not significant (Carcinogen: N-BUTYL-N-(4-HYDROXY-BUTYL)NITROSAMINE, 3817-11-6, Dose [Inhibitor]: 0.1% IN DIET FOR 32 WK POST CARCINOGEN TREATMENT (STUDY DURATION: 40 WK), Route [Inhibitor]: ORAL, Species: MOUSE, Strain/Sex: ICR/MALE, Target Tissue: Type of Lesion: URINARY BLADDER: CANCER, Dose [Carcinogen]: 0.05% IN DRINKING WATER FOR FIRST 8 WK THEN FED BASAL DIET CONTAINING INHIBITOR, Promoter: NONE USED); 4/13 (31%), 8/15 (53%), -71%, not significant (Carcinogen: N-BUTYL-N-(4-HYDROXY-BUTYL)NITROSAMINE, 3817-11-6, Dose [Inhibitor]: 0.1% IN DIET FOR 32 WK POST CARCINOGEN TREATMENT (STUDY DURATION: 40 WK), Route [Inhibitor]: ORAL, Species: MOUSE, Strain/Sex: ICR/MALE, Target Tissue: Type of Lesion: URINARY BLADDER: PAPILLARY OR NODULAR HYPERPLASIA, Dose [Carcinogen]: 0.05% IN DRINKING WATER FOR FIRST 8 WK THEN FED BASAL DIET CONTAINING INHIBITOR, Promoter: NONE USED); 49/53 (92%), 38/46 (83%), 10%, not significant (Carcinogen: URETHANE, 51-79-6, Dose [Inhibitor]: 11 INJECTIONS (100 UG/G BW FOR EACH) AT 12 HR INTERVALS FROM 0-120 HR AFTER URETHANE TREATMENT (STUDY DURATION: 5 MO), Route [Inhibitor]: INTRAPERITONEAL, Species: MOUSE, Strain/Sex: ICR/JCI/FEMALE, Target Tissue: Type of Lesion: LUNG: TUMOR, Dose [Carcinogen]: 1.0 MG/G BW ONCE, Promoter: NONE USED); 49/53 (92%), 34/45 (76%), 17%, p<0.05 (Carcinogen: URETHANE, 51-79-6, Dose [Inhibitor]: 11 INJECTIONS (100 UG/G BW FOR EACH) AT 12 HR INTERVALS FROM 240-360 HR AFTER URETHANE TREATMENT (STUDY DURATION: 5 MO), Route [Inhibitor]: INTRAPERITONEAL, Species: MOUSE, Strain/Sex: ICR/JCI/FEMALE, Target Tissue: Type of Lesion: LUNG: TUMOR, Dose [Carcinogen]: 1.0 MG/G BW ONCE, Promoter: NONE USED).

For `OC1C(O)C(O)C(O)C(O)C1O` (configuration not stated), under “Carcinogen: 7,12-DIMETHYLBENZ[A]ANTHRACENE, 57-97-6, Dose [Inhibitor]: 0, 15 MILLIMOLAR IN DRINKING WATER FOR 47 WK BEGINNING 2 WK PRIOR TO CARCINOGEN DOSE (STUDY DURATION: 47 WK), Route [Inhibitor]: ORAL, Species: RAT, Strain/Sex: SPRAGUE-DAWLEY/FEMALE, Target Tissue: Type of Lesion: MAMMARY GLAND: TUMOR, Dose [Carcinogen]: 5 MG IN 1 ML CORN OIL ONCE, Promoter: NONE USED”, the “tumour outcome (control, treated, inhibition, significance)” value is 37/40 (93%), 30/40 (75%), 19%, p<0.05.

For the compound `CCCCCCCCCCCCCCCCCCCCCCCCCCCCOC(=O)/C=C/c1ccc(O)c(OC)c1`, the “tumour outcome (control, treated, inhibition, significance)” value (Carcinogen: 7,12-DIMETHYLBENZ[A]ANTHRACENE, 57-97-6, Dose [Inhibitor]: 0, 2 UMOL IN ACETONE/DMSO (9:1) 2/WK FOR 20 WK BEGINNING 1 WK POST CARCINOGEN DOSE (STUDY DURATION: 20 WK), Route [Inhibitor]: DERMAL, Species: MOUSE, Strain/Sex: ICR/FEMALE, Target Tissue: Type of Lesion: SKIN: PAPILLOMA, Dose [Carcinogen]: 50 UG ONCE, Promoter: 12-O-TETRADECANOYLPHORBOL-13-ACETATE, 16561-29-8) was 100%, 20%, 80%, not calculated.

Take `Oc1cc(O)c2c(c1)O[C@H](c1cc(O)c(O)c(O)c1)[C@H](O)C2`: the “tumour outcome (control, treated, inhibition, significance)” value (Carcinogen: 4-METHYLNITROSAMINO-1-(3-PYRIDYL)-1-BUTANONE, 64091-91-4, Dose [Inhibitor]: 0, 560 PPM IN DRINKING WATER 2 WK PRIOR TO CARCINOGEN AND CONTINUING FOR 13 WK (STUDY DURATION: 29 WK), Route [Inhibitor]: ORAL, Species: MOUSE, Strain/Sex: A/J/FEMALE, Target Tissue: Type of Lesion: LUNG: ADENOMA, Dose [Carcinogen]: 11.65 MG/KG IN CORN OIL 3/WK FOR 10 WK, Promoter: NONE USED) is recorded as 100%, 100%, 0%, not significant; the “tumour outcome (control, treated, inhibition, significance)” value (Carcinogen: N-ETHYL-N'-NITRO-N-NITROSOGUANIDINE, 4245-77-6, Dose [Inhibitor]: 0, 0.005% IN DRINKING WATER BEGINNING POST CARCINOGEN TREATMENT AND CONTINUING FOR DURATION OF STUDY (STUDY DURATION: 16, Route [Inhibitor]: ORAL, Species: MOUSE, Strain/Sex: C57BL/MALE, Target Tissue: Type of Lesion: DUODENUM: TUMOR, Dose [Carcinogen]: 100 MG/L IN DRINKING WATER FOR 4 WK, Promoter: NONE USED) is on record as 20/36 (63%), 6/30 (20%), 68%, p<0.001; the “tumour outcome (control, treated, inhibition, significance)” value (Carcinogen: N-METHYL-N'-NITRO-N-NITROSOGUANIDINE, 70-25-7, Dose [Inhibitor]: 0, 0.005% IN DRINKING WATER BEGINNING POST CARCINOGEN TREATMENT AND CONTINUING FOR DURATION OF STUDY (STUDY DURATION: 44, Route [Inhibitor]: ORAL, Species: RAT, Strain/Sex: WISTAR/MALE, Target Tissue: Type of Lesion: GLANDULAR STOMACH: TUMOR, Dose [Carcinogen]: 100 MG/L IN DRINKING WATER FOR 28 WK, Promoter: NONE USED) was 10/14 (71%), 6/10 (60%), 15%, not significant; the “tumour outcome (control, treated, inhibition, significance)” value (Carcinogen: N-METHYL-N'-NITRO-N-NITROSOGUANIDINE, 70-25-7, Dose [Inhibitor]: 0, 0.05% IN DRINKING WATER BEGINNING POST CARCINOGEN TREATMENT AND CONTINUING FOR DURATION OF STUDY (STUDY DURATION: 44, Route [Inhibitor]: ORAL, Species: RAT, Strain/Sex: WISTAR/MALE, Target Tissue: Type of Lesion: GLANDULAR STOMACH: TUMOR, Dose [Carcinogen]: 80 MG/L IN DRINKING WATER FOR 28 WK, Promoter: NONE USED) is listed as 21/34 (62%), 11/35 (31%), 50%, p<0.05; the “tumour outcome (control, treated, inhibition, significance)” value (Carcinogen: PEROXYNITRITE [19059-14-4], Dose [Inhibitor]: 0.0025% IN WATER FROM 1 WK BEFORE TO 1 WK AFTER INITIATION, Route [Inhibitor]: DRINKING WATER, Species: MOUSE, Strain/Sex: SENCAR/FEMALE, Target Tissue: Type of Lesion: SKIN: PAPILLOMA, Dose [Carcinogen]: 390 UMOL ONCE (STUDY DURATION: 20 WKS), Promoter: TETRADECANOYL PHORBOL ACETATE [16561-29-8]) is given as 100%; 10%, 90% (at wk 11).
